≈ marks a conversion by molar mass, not a printed value.
tested on: Septoria tritici (ATCC 26517); test: Minimum Inhibitory Concentration (MIC) (Septoria tritici), CLSI-based microdilution; format: cell-based; conditions: Zymoseptoria tritici, ATCC26517, 168 h, S. tritici ATCC 26517; seven days at 22° C. in the dark; MIC = 50% reduction in growth, visual; read-out: Septoria MIC Rating
Procedure: B. Minimum Inhibitory Concentration (MIC) (Septoria tritici)
Compounds of the present disclosure were assessed for their ability to inhibit the growth of a common strain of the fungal plant pathogen Septoria tritici (ATCC 26517) using a procedure based on a Clinical and Laboratory Standards Institute (CLSI) microdilution assay protocol for filamentous fungi.
Stock solutions of the test compounds and standards were prepared in DMSO at 6400 μg/mL. Each stock solution was used to prepare a 2-fold dilution series ranging from 16 to 0.016 μg/mL (total of 11 compound concentrations) in RPMI-1640 (Roswell Park Memorial Institute) medium containing 3-(N-morpholino)propanesulfonic acid (MOPS) buffer and 2% DMSO. A 100 μL aliquot of the dilutions was added to columns 1 (16 μg/mL compound) through 11 (0.016 μg/mL compound) of a 96-well microtiter plate. This format was replicated in a second row of the microtiter plate. Thus, each microtiter plate could include 11 concentrations of four test or control compounds replicated twice. A 100 μL aliquot of RPMI-1640/MOPS/2% DMSO medium was added to column 12 (no compound control) of the microtiter plate.
A fresh culture of S. tritici was used to prepare a solution of approximately 5×10^4 colony-forming units per milliliter (cfu/mL) in RPMI/MOPS medium without DMSO. A 100 μL aliquot of this solution was added to all 96 wells in the microtiter plate. […] The assay plates were incubated at 22° C. for seven days in the dark without shaking.

Row | SMILES | MIC [µg/mL]
1 | N#Cc1ccc(-c2ccc(C(F)(F)C(O)(Cn3cnnn3)c3ccc(F)cc3F)nc2)cc1 (stereo not shown) [Example 1, 4-(6-(2-(2,4-Difluorophenyl)-1,1-difluoro-2-hydroxy-3-(1H-tetrazol-1-yl)propyl)pyridin-3-yl)benzonitrile] | < 0.5
2 | N#Cc1cccc(-c2ccc(C(F)(F)C(O)(Cn3cnnn3)c3ccc(F)cc3F)nc2)c1 (stereo not shown) [Example 3, 3-(6-(2-(2,4-Difluorophenyl)-1,1-difluoro-2-hydroxy-3-(1H-tetrazol-1-yl)propyl)pyridin-3-yl)benzonitrile] | 1.5 to 4 (≈ 3.3 to 8.8 µM)
3 | CC(C)Oc1ccc(-c2ccc(C(F)(F)C(O)(Cn3cnnn3)c3ccc(F)cc3F)nc2)cc1 (stereo not shown) [Example 4, 2-(2,4-Difluorophenyl)-1,1-difluoro-1-(5-(4-isopropoxyphenyl)pyridin-2-yl)-3-(1H-tetrazol-1-yl)propan-2-ol] | < 0.5
4 | OC(Cn1cnnn1)(c1ccc(F)cc1F)C(F)(F)c1ccc(-c2ccc(F)cc2)cn1 (stereo not shown) [Example 5, 2-(2,4-Difluorophenyl)-1,1-difluoro-1-(5-(4-fluorophenyl)pyridin-2-yl)-3-(1H-tetrazol-1-yl)propan-2-ol] | < 0.5
5 | OC(Cn1cnnn1)(c1ccc(F)cc1F)C(F)(F)c1ccc(-c2cccc(OC(F)(F)F)c2)cn1 (stereo not shown) [Example 6, 2-(2,4-Difluorophenyl)-1,1-difluoro-3-(1H-tetrazol-1-yl)-1-(5-(3-(trifluoromethoxy)phenyl)-pyridin-2-yl)propan-2-ol] | 1.5 to 4 (≈ 2.92 to 7.79 µM)
6 | OC(Cn1cnnn1)(c1ccc(F)cc1F)C(F)(F)c1ccc(-c2ccc(OC(F)(F)F)cc2)cn1 (stereo not shown) [Example 7, 2-(2,4-Difluorophenyl)-1,1-difluoro-3-(1H-tetrazol-1-yl)-1-(5-(4-(trifluoromethoxy)phenyl)-pyridin-2-yl)propan-2-ol] | < 0.5
7 | OC(Cn1cnnn1)(c1ccc(F)cc1F)C(F)(F)c1ccc(-c2cccc(Cl)c2)cn1 (stereo not shown) [Example 8, 1-(5-(3-Chlorophenyl)pyridin-2-yl)-2-(2,4-difluorophenyl)-1,1-difluoro-3-(1H-tetrazol-1-yl)propan-2-ol] | 0.5 to 1.5 (≈ 1.08 to 3.23 µM)
8 | OC(Cn1cnnn1)(c1ccc(F)cc1F)C(F)(F)c1ccc(-c2ccc(Cl)cc2)cn1 (stereo not shown) [Example 9, 1-(5-(4-Chlorophenyl)pyridin-2-yl)-2-(2,4-difluorophenyl)-1,1-difluoro-3-(1H-tetrazol-1-yl)propan-2-ol] | < 0.5
9 | OC(Cn1cnnn1)(c1ccc(F)cc1F)C(F)(F)c1ccc(-c2cc(F)ccc2F)cn1 (stereo not shown) [Example 10, 2-(2,4-Difluorophenyl)-1-(5-(2,5-difluorophenyl)pyridin-2-yl)-1,1-difluoro-3-(1H-tetrazol-1-yl)propan-2-ol] | < 0.5
10 | OC(Cn1cnnn1)(c1ccc(F)cc1F)C(F)(F)c1ccc(-c2ccc(OCC(F)(F)F)cc2)cn1 (stereo not shown) [Example 11, 2-(2,4-Difluorophenyl)-1,1-difluoro-3-(1H-tetrazol-1-yl)-1-(5-(4-(2,2,2-trifluoroethoxy)phenyl)pyridin-2-yl)propan-2-ol] | < 0.5
11 | OC(Cn1cncn1)(c1ccc(F)cc1F)C(F)(F)c1ccc(-c2ccc(F)cc2)cn1 (stereo not shown) [Example 16, 2-(2,4-Difluorophenyl)-1,1-difluoro-1-(5-(4-fluorophenyl)pyridin-2-yl)-3-(1H-1,2,4-triazol-1-yl)propan-2-ol] | < 0.5
12 | OC(Cn1cncn1)(c1ccc(F)cc1F)C(F)(F)c1ccc(-c2ccc(OC(F)(F)F)cc2)cn1 (stereo not shown) [Example 18, 2-(2,4-Difluorophenyl)-1,1-difluoro-3-(1H-1,2,4-triazol-1-yl)-1-(5-(4-(trifluoromethoxy)phenyl)pyridin-2-yl) propan-2-ol] | < 0.5
13 | OC(Cn1ncnn1)(c1ccc(F)cc1F)C(F)(F)c1ccc(-c2cccc(F)c2)cn1 (stereo not shown) [Example 21] | > 4
14 | OC(Cn1ncnn1)(c1ccc(F)cc1F)C(F)(F)c1ccc(-c2ccc(C(F)(F)F)cc2)cn1 (stereo not shown) [Example 22] | > 4
15 | Oc1ccc(-c2ccc(C(F)(F)C(O)(Cn3cnnn3)c3ccc(F)cc3F)nc2)cc1 (stereo not shown) [Example 23, 4-(6-(2-(2,4-Difluorophenyl)-1,1-difluoro-2-hydroxy-3-(1H-tetrazol-1-yl)propyl)pyridin-3-yl)phenol] | 1.5 to 4 (≈ 3.37 to 8.98 µM)
16 | CC(C)c1cccc(-c2ccc(C(F)(F)C(O)(Cn3cnnn3)c3ccc(F)cc3F)nc2)c1 (stereo not shown) [Example 24, 2-(2,4-Difluorophenyl)-1,1-difluoro-1-(5-(3-isopropylphenyl)pyridin-2-yl)-3-(1H-tetrazol-1-yl)propan-2-ol] | 0.5 to 1.5 (≈ 1.06 to 3.18 µM)

Row | SMILES | MIC [µg/mL]
17 | OC(Cn1cnnn1)(c1ccc(F)cc1F)C(F)(F)c1ccc(-c2ccc(F)c(F)c2)cn1 (stereo not shown) [Example 25, 2-(2,4-Difluorophenyl)-1-(5-(3,4-difluorophenyl)pyridin-2-yl)-1,1-difluoro-3-(1H-tetrazol-1-yl)propan-2-ol] | < 0.5
18 | OC(Cn1cnnn1)(c1ccc(F)cc1F)C(F)(F)c1ccc(-c2cccc(OC(F)F)c2)cn1 (stereo not shown) [Example 26, 1-(5-(3-(Difluoromethoxy)phenyl)pyridin-2-yl)-2-(2,4-difluorophenyl)-1,1-difluoro-3-(1H-tetrazol-1-yl)propan-2-ol] | 0.5 to 1.5 (≈ 1.01 to 3.03 µM)
19 | OC(Cn1cnnn1)(c1ccc(F)cc1F)C(F)(F)c1ccc(-c2ccc(SC(F)(F)F)cc2)cn1 (stereo not shown) [Example 27, 2-(2,4-Difluorophenyl)-1,1-difluoro-3-(1H-tetrazol-1-yl)-1-(5-(4-((trifluoromethyl)thio)phenyl)pyridin-2-yl)propan-2-ol] | < 0.5
20 | CC(C)(C)Oc1ccc(-c2ccc(C(F)(F)C(O)(Cn3cnnn3)c3ccc(F)cc3F)nc2)cc1 (stereo not shown) [Example 28, 1-(5-(4-(tert-Butoxy)phenyl)pyridin-2-yl)-2-(2,4-difluorophenyl)-1,1-difluoro-3-(1H-tetrazol-1-yl)propan-2-ol] | < 0.5
21 | OC(Cn1cnnn1)(c1ccc(F)cc1F)C(F)(F)c1ccc(-c2ccc(Cl)c(F)c2)cn1 (stereo not shown) [Example 29, 1-(5-(4-Chloro-3-fluorophenyl)pyridin-2-yl)-2-(2,4-difluorophenyl)-1,1-difluoro-3-(1H-tetrazol-1-yl)propan-2-ol] | 1.5 to 4 (≈ 3.11 to 8.3 µM)
22 | Oc1cccc(-c2ccc(C(F)(F)C(O)(Cn3cnnn3)c3ccc(F)cc3F)nc2)c1 (stereo not shown) [Example 30, 3-(6-(2-(2,4-Difluorophenyl)-1,1-difluoro-2-hydroxy-3-(1H-tetrazol-1-yl)propyl)pyridin-3-yl)phenol] | < 0.5
23 | OC(Cn1cnnn1)(c1ccc(F)cc1F)C(F)(F)c1ccc(-c2cccc(C(F)(F)F)c2)cn1 (stereo not shown) [Example 31, 2-(2,4-Difluorophenyl)-1,1-difluoro-3-(1H-tetrazol-1-yl)-1-(5-(3-(trifluoromethyl)phenyl)pyridin-2-yl)propan-2-ol] | 0.5 to 1.5 (≈ 1.01 to 3.02 µM)
24 | O=[N+]([O-])c1ccc(-c2ccc(C(F)(F)C(O)(Cn3cnnn3)c3ccc(F)cc3F)nc2)cc1 (stereo not shown) [Example 32, 2-(2,4-Difluorophenyl)-1,1-difluoro-1-(5-(4-nitrophenyl)pyridin-2-yl)-3-(1H-tetrazol-1-yl)propan-2-ol] | 0.5 to 1.5 (≈ 1.05 to 3.16 µM)
25 | O=C(c1ccc(-c2ccc(C(F)(F)C(O)(Cn3cnnn3)c3ccc(F)cc3F)nc2)cc1)C(F)(F)F (stereo not shown) [Example 33, 1-(4-(6-(2-(2,4-Difluorophenyl)-1,1-difluoro-2-hydroxy-3-(1H-tetrazol-1-yl)propyl)pyridin-3-yl)phenyl)-2,2,2-trifluoroethanone] | 0.5 to 1.5 (≈ 0.952 to 2.86 µM)
26 | OC(Cn1cnnn1)(c1ccc(Cl)cc1F)C(F)(F)c1ccc(-c2ccc(OC(F)(F)F)cc2)cn1 (stereo not shown) [Example 34, 2-(4-Chloro-2-fluorophenyl)-1,1-difluoro-3-(1H-tetrazol-1-yl)-1-(5-(4-(trifluoromethoxy)phenyl)pyridin-2-yl)propan-2-ol] | < 0.5
27 | OC(Cn1cnnn1)(c1ccc(F)cc1F)C(F)(F)c1ccc(-c2ccccc2)cn1 (stereo not shown) [Example 35, 2-(2,4-Difluorophenyl)-1,1-difluoro-1-(5-phenylpyridin-2-yl)-3-(1H-tetrazol-1-yl)propan-2-ol] | < 0.5
28 | OC(Cn1cnnn1)(c1ccc(F)cc1F)C(F)(F)c1ccc(-c2ccc(N3CCOCC3)cc2)cn1 (stereo not shown) [Example 36, 2-(2,4-Difluorophenyl)-1,1-difluoro-1-(5-(4-morpholinophenyl)pyridin-2-yl)-3-(1H-tetrazol-1-yl)propan-2-ol] | < 0.5
29 | O=C(Nc1ccc(-c2ccc(C(F)(F)C(O)(Cn3cnnn3)c3ccc(F)cc3F)nc2)cc1)C(F)(F)F (stereo not shown) [Example 37, N-(4-(6-(2-(2,4-Difluorophenyl)-1,1-difluoro-2-hydroxy-3-(1H-tetrazol-1-yl)propyl)pyridin-3-yl)phenyl)-2,2,2-trifluoroacetamide] | < 0.5
30 | OC(Cn1cnnn1)(c1ccc(F)cc1F)C(F)(F)c1ccc(-c2ccc(OC(F)F)cc2)cn1 (stereo not shown) [Example 38, 1-(5-(4-(Difluoromethoxy)phenyl)pyridin-2-yl)-2-(2,4-difluorophenyl)-1,1-difluoro-3-(1H-tetrazol-1-yl)propan-2-ol] | < 0.5
31 | OC(Cn1cnnn1)(c1ccc(F)cc1F)C(F)(F)c1ccc(-c2ccc(SC(F)F)cc2)cn1 (stereo not shown) [Example 40, 1-(5-(4-((Difluoromethyl)thio)phenyl)pyridin-2-yl)-2-(2,4-difluorophenyl)-1,1-difluoro-3-(1H-tetrazol-1-yl)propan-2-ol] | < 0.5
